Measured values reported in US12194049B2, “Composition for treating carbapenem antibiotic-resistant Acinetobacter baumannii infection” (priority 2019, dated 2025).

Key:
[1] = test system: CR-Ab pneumonia model mice; test: Protective effect in CR-Ab pneumonia model mice (7-day survival); format: in vivo, Male C57BL/6 mice; settings: intraperitoneal, once a day, after 7 days
[2] = test system: clinically isolated Acinetobacter baumannii; settings: found in 2017; cited from earlier work
[3] = test system: carbapenem antibiotic-resistant Acinetobacter baumannii CR-Ab (157 clinically isolated strains); test: microbe, parasite or virus in culture; settings: read-out: Cumulative microbial inhibition rates (%) against CR-Ab
Excerpt: Strains: 157 clinically isolated strains of carbapenem antibiotic-resistant Acinetobacter baumannii were selected and named as CR-Ab.
Drugs: Sulbactam and ceftazidime were taken and prepared into compositions of different ratios. The method was fixing the amount of sulbactam and gradually reducing the amount of ceftazidime to obtain compositions of sulbactam and ceftazidime at weight ratios of 1:1, 1:0.9, 1:0.8, 1:0.6, 1:0.4, 1:0.2 and 1:0.1, respectively. A sulbactam-only preparation was additionally used as a control.
The cumulative microbial inhibition rate was used to evaluate the microbial inhibition effects of the drugs, respectively. The cumulative microbial inhibition rate was defined as the microbial inhibition rate of a drug at a certain concentration plus all the microbial inhibition rates below that concentration.

C[C@@H](O)[C@H]1C(=O)N2C(C(=O)O)=C(S[C@@H]3CN[C@H](C(=O)N(C)C)C3)[C@H](C)[C@H]12 [Meropenem, meropenem]
Survival of CR-Ab pneumonia model mice ([1]; High dose (30 mg/kg)): 3/15 | Survival of CR-Ab pneumonia model mice ([1]; Low dose (10 mg/kg)): 2/15 | resistance rate [2]: up to 69.3%

CC(C)(O/N=C(\C(=O)N[C@@H]1C(=O)N2C(C(=O)[O-])=C(C[n+]3ccccc3)CS[C@H]12)c1csc(N)n1)C(=O)O [ceftazidime, (6R,7R)-7-[[(2Z)-2-(2-Aminothiazol-4-yl)-2-[(1-carboxy-1-methylethoxy)imino]acetyl]amino]-8-oxo-3-[(1-pyridinio)methyl]-5-thia-1-azabicyclo[4.2.0]oct-2-ene-2-carboxylate]
resistance rate [2]: up to 72%

CC1(C)[C@H](C(=O)O)N2C(=O)C[C@H]2S1(=O)=O [Single sulbactam, (2S,5R)-3,3-dimethyl-7-oxo-4-thia-1-azabicyclo[3.2.0]heptane-2-carboxylate-4,4-dioxide]
inhibition at 0.125 µg/mL [3]: 0% | inhibition at 0.25 µg/mL [3]: 0% | inhibition at 0.5 µg/mL [3]: 0% | inhibition at 1 µg/mL [3]: 7% | inhibition at 2 µg/mL [3]: 17% | inhibition at 4 µg/mL [3]: 32% | inhibition at 8 µg/mL [3]: 48% | inhibition at 16 µg/mL [3]: 64% | inhibition at 32 µg/mL [3]: 84% | inhibition at 64 µg/mL [3]: 94% | inhibition at 128 µg/mL [3]: 100% | inhibition at 256 µg/mL [3]: 100% | inhibition at 512 µg/mL [3]: 100%
